Data from patent US10239843B2 (CANCER RESEARCH TECHNOLOGY LIMITED, priority 2014, dated 2019).
Read-outs that look alike come from different tables or passages of the source.

Columns and labels:
[1] = system: PARG in HeLa cell line; assay: PARG cell assay (PAR chain immunofluorescence after MMS); format: cell-based; conditions: HeLa cells
Summary of the method: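 Nuclear poly(ADP-ribose) chains in HeLa cells are read by indirect immunofluorescence with a mouse anti-PAR antibody applied overnight at 4° C after fixing and permeabilising. Cells get 1 h of compound, then 50 μg/mL MMS (final) for another hour. PAR persisting at that point reflects PARG inhibition.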

[2] = biological target: Human Full Length PARG (Homo sapiens (Human), UniProt Q86W56); assay: PARG enzyme assay (TR-FRET); format: biochemical
[3] = Homo sapiens, MMS treatment, read-out: PARG Cell IC50
[4] = Homo sapiens, MMS 50 μg/mL, read-out: PARG Cell IC50 Geomean
[5] = read-out: PARG Biochem IC50 Geomean
[6] = MMS 50 μg/mL, read-out: PARG Cell IC50 Geomean
[7] = MMS treatment, read-out: PARG Cell IC50

Human Full Length PARG, sequence (Q86W56 whole entry): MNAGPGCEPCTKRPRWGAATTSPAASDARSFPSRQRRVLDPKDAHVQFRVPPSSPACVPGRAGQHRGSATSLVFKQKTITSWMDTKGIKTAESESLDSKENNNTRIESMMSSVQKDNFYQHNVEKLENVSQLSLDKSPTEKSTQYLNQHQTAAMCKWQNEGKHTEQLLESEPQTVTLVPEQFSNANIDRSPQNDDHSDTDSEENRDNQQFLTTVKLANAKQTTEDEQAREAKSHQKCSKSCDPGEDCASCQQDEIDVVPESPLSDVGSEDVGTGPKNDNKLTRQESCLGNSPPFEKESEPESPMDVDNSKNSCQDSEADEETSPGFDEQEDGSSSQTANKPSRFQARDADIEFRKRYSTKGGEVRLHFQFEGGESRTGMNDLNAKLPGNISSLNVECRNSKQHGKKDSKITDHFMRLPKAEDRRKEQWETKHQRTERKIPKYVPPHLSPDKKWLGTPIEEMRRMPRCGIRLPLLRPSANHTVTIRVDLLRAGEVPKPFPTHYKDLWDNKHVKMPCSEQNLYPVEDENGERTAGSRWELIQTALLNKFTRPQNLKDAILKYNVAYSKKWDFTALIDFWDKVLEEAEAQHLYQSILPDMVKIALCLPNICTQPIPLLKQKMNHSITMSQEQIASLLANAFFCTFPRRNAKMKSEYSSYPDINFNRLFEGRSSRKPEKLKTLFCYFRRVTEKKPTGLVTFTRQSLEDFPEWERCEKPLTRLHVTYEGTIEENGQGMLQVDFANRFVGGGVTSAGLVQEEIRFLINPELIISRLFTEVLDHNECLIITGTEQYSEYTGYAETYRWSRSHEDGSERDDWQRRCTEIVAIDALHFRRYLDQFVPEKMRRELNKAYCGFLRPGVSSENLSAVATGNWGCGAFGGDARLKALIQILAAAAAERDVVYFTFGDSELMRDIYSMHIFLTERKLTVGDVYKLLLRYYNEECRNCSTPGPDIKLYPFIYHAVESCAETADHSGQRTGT

Compound	IC50 [1, 3]	IC50 ([2]; read-out: PARG Biochem IC50)	IC50 [1, 4]	IC50 [2, 5]	other results
Cc1cc(Cn2c(=O)c3cc(S(=O)(=O)NC4(CF)CC4)ccc3n(CC3COC3)c2=O)on1 [Example 522, N-[1-(Fluoromethyl)cyclopropyl]-3-[(3-methylisoxazol-5-yl)methyl]-1-(oxetan-3-ylmethyl)-2,4-dioxo-quinazoline-6-sulfonamide]	923 nM	112 nM			
CN(C)C(=O)Cn1c(=O)n(Cc2cnn(C)c2)c(=O)c2cc(S(=O)(=O)NC3(C)CC3)ccc21 [Example 265]			6480 nM	418 nM	
COCCCn1c(=O)n(Cc2cc(C)no2)c(=O)c2cc(S(=O)(=O)NC3(C)CC3)ccc21 [Example 251]				392 nM	IC50 [1, 6]: 178 nM
CC(=O)NCc1cc(S(=O)(=O)NC2(C)CC2)cc2c(=O)n(Cc3cnn(C)c3)c(=O)[nH]c12 [Example 428, N-[[6-[(1-Methylcyclopropyl)sulfamoyl]-3-[(1-methylpyrazol-4-yl)methyl]-2,4-dioxo-1H-quinazolin-8-yl]methyl]acetamide]	27000 nM	494 nM			
Cn1cc(Cn2c(=O)c3cc(S(=O)(=O)NC4(CF)CC4)ccc3n(Cc3ccncc3)c2=O)cn1 [Example 610, N-[1-(Fluoromethyl)cyclopropyl]-3-[(1-methylpyrazol-4-yl)methyl]-2,4-dioxo-1-(4-pyridylmethyl)quinazoline-6-sulfonamide]	669 nM	111 nM			
CC1CC1Cn1c(=O)n(C)c(=O)c2cc(S(=O)(=O)NC3(C)CC3)ccc21 (stereo not drawn) [Example 35]			409 nM	246 nM	
Cc1cc(Cn2c(=O)c3cc(S(=O)(=O)NC4(C)CC4)ccc3n(CCC(N)=O)c2=O)on1 [Example 277]			5760 nM	432 nM	
Cc1cc(Cn2c(=O)c3cc(S(=O)(=O)NC4(C)CC4)ccc3n(CCN(C)C)c2=O)on1 [Example 246]			431 nM	469 nM	
Cc1ncc(Cn2c(=O)c3cc(S(=O)(=O)NC4(C#N)CC4)ccc3n(CC3CC3)c2=O)s1 [Example 399, N-(1-Cyanocyclopropyl)-1-(cyclopropylmethyl)-3-[(2-methylthiazol-5-yl)methyl]-2,4-dioxo-quinazoline-6-sulfonamide]	87 nM	31 nM			
CCOC(=O)Cn1c(=O)n(Cc2cc(C)no2)c(=O)c2cc(S(=O)(=O)NC3(C)CC3)ccc21 [Example 332]			462 nM	356 nM	
Cc1cc(Cn2c(=O)c3cc(S(=O)(=O)NC4(CF)CC4)ccc3n(C)c2=O)on1 [Example 514, N-[1-(Fluoromethyl)cyclopropyl]-1-methyl-3-[(3-methylisoxazol-5-yl)methyl]-2,4-dioxo-quinazoline-6-sulfonamide]	178 nM	384 nM			
Cn1c(=O)c2cc(S(=O)(=O)NC3(C)CC3)ccc2n(Cc2cnc(Cl)s2)c1=O [Example 145]			342 nM	151 nM	
C#CCn1c(=O)n(Cc2cnc(C)s2)c(=O)c2cc(S(=O)(=O)NC3(C#N)CC3)ccc21 [Example 403, N-(1-Cyanocyclopropyl)-3-[(2-methylthiazol-5-yl)methyl]-2,4-dioxo-1-prop-2-ynyl-quinazoline-6-sulfonamide]		84 nM			IC50 [1, 7]: 265 nM
Cn1cc(Cn2c(=O)c3cc(S(=O)(=O)NC4(CF)CC4)ccc3n(CC3CCCO3)c2=O)cn1 (stereo not drawn) [Example 619, N-[1-(Fluoromethyl)cyclopropyl]-3-[(1-methylpyrazol-4-yl)methyl]-2,4-dioxo-1-(tetrahydrofuran-2-ylmethyl)quinazoline-6-sulfonamide]	233 nM	190 nM			
Cn1cc(Cn2c(=O)c3cc(S(=O)(=O)NC4(CF)CC4)ccc3n(Cc3cc[nH]n3)c2=O)cn1 [Example 586, N-[1-(Fluoromethyl)cyclopropyl]-3-[(1-methylpyrazol-4-yl)methyl]-2,4-dioxo-1-(1H-pyrazol-3-ylmethyl)quinazoline-6-sulfonamide]	530 nM	82 nM			
CC1(NS(=O)(=O)c2ccc3c(c2)c(=O)n(CC#N)c(=O)n3CC2CC2)CC1 [Example 193]			556 nM	277 nM	
Cn1cc(Cn2c(=O)c3cc(S(=O)(=O)NC4(CF)CC4)ccc3n(Cc3c[nH]cn3)c2=O)cn1 [Example 575, N-[1-(Fluoromethyl)cyclopropyl]-1-(1H-imidazol-4-ylmethyl)-3-[(1-methylpyrazol-4-yl)methyl]-2,4-dioxo-quinazoline-6-sulfonamide]	1570 nM	88 nM			
Cc1cc(Cn2c(=O)n(Cc3cnn(C)c3)c(=O)c3cc(S(=O)(=O)NC4(C)CC4)c(F)cc32)n(C)n1 [Example 392, 1-[(2,5-Dimethylpyrazol-3-yl)methyl]-7-fluoro-N-(1-methylcyclopropyl)-3-[(1-methylpyrazol-4-yl)methyl]-2,4-dioxo-quinazoline-6-sulfonamide]			113 nM	47 nM	

Compound	IC50 [1, 3]	IC50 ([2]; read-out: PARG Biochem IC50)	IC50 [1, 4]	IC50 [2, 5]	other results
Cc1cc(Cn2c(=O)c3cc(S(=O)(=O)NC4(C)CC4)ccc3n(CC(F)(F)F)c2=O)on1 [Example 325]			320 nM	431 nM	
Cn1cc(Cn2c(=O)c3cc(S(=O)(=O)NC4(CF)CC4)ccc3n(CC3CCC3)c2=O)cn1 [Example 461, 1-(Cyclobutylmethyl)-N-[1-(fluoromethyl)cyclopropyl]-3-[(1-methylpyrazol-4-yl)methyl]-2,4-dioxo-quinazoline-6-sulfonamide]	30 nM	39 nM			
CN(C)CCCn1c(=O)n(Cc2cnn(C)c2)c(=O)c2cc(S(=O)(=O)NC3(C)CC3)ccc21 [Example 237]			285 nM	232 nM	
Cc1nc(Cn2c(=O)n(Cc3cnn(C)c3)c(=O)c3cc(S(=O)(=O)NC4(CF)CC4)ccc32)c[nH]1 [Example 568, N-[1-(Fluoromethyl)cyclopropyl]-1-[(2-methyl-1H-imidazol-4-yl)methyl]-3-[(1-methylpyrazol-4-yl)methyl]-2,4-dioxo-quinazoline-6-sulfonamide]	5290 nM	100 nM			
CCn1c(=O)n(Cc2cc(C)no2)c(=O)c2cc(S(=O)(=O)NC3(CF)CC3)ccc21 [Example 520, 1-Ethyl-N-[1-(fluoromethyl)cyclopropyl]-3-[(3-methylisoxazol-5-yl)methyl]-2,4-dioxo-quinazoline-6-sulfonamide]		162 nM			IC50 [1, 7]: 92 nM
Cc1cc(Cn2c(=O)c3cc(S(=O)(=O)NC4(C)CC4)ccc3n(CC3CC3(F)F)c2=O)on1 (stereo not drawn) [Example 364]			106 nM	408 nM	
COC1(Cn2c(=O)n(Cc3cc(C)no3)c(=O)c3cc(S(=O)(=O)NC4(C)CC4)ccc32)CCCC1 [Example 471, 1-[(1-Methoxycyclopentyl)methyl]-N-(1-methylcyclopropyl)-3-[(3-methylisoxazol-5-yl)methyl]-2,4-dioxo-quinazoline-6-sulfonamide]	241 nM	550 nM			
Cn1cc(Cn2c(=O)c3cc(S(=O)(=O)NC4(CF)CC4)ccc3n(CC3CCOC3)c2=O)cn1 (stereo not drawn) [Example 598, N-[1-(Fluoromethyl)cyclopropyl]-3-[(1-methylpyrazol-4-yl)methyl]-2,4-dioxo-1-(tetrahydrofuran-3-ylmethyl)quinazoline-6-sulfonamide]	240 nM	82 nM			
Cn1cc(Cn2c(=O)c3cc(S(=O)(=O)NC4(C)CC4)c(F)cc3n(Cc3cnn(C)c3)c2=O)cn1 [Example 393, 7-Fluoro-N-(1-methylcyclopropyl)-1,3-bis[(1-methylpyrazol-4-yl)methyl]-2,4-dioxo-quinazoline-6-sulfonamide]				28 nM	IC50 [1, 6]: 84 nM
CCc1nn(Cc2cc(C)no2)c(=O)c2cc(S(=O)(=O)NC3(C)CC3)ccc12 [Example 353]			574 nM	408 nM	
Cn1cc(Cn2c(=O)c3cc(S(=O)(=O)NC4(C)CC4)ccc3n(CC3(C)COC3)c2=O)cn1 [Example 294]			226 nM	47 nM	
Cc1nc(Cn2c(=O)n(Cc3cnn(C)c3)c(=O)c3cc(S(=O)(=O)NC4(CF)CC4)ccc32)co1 [Example 580, N-[1-(Fluoromethyl)cyclopropyl]-1-[(2-methyloxazol-4-yl)methyl]-3-[(1-methylpyrazol-4-yl)methyl]-2,4-dioxo-quinazoline-6-sulfonamide]	46 nM	69 nM			
COCCn1c(=O)n(Cc2cnn(C)c2)c(=O)c2cc(S(=O)(=O)NC3(C#N)CC3)ccc21 [Example 357]			1600 nM	153 nM	
Cc1cc(Cn2c(=O)c3cc(S(=O)(=O)NC4(CF)CC4)ccc3n(CC3CCOC3)c2=O)on1 (stereo not drawn) [Example 524, N-[1-(Fluoromethyl)cyclopropyl]-3-[(3-methylisoxazol-5-yl)methyl]-2,4-dioxo-1-(tetrahydrofuran-3-ylmethyl)quinazoline-6-sulfonamide]	310 nM	125 nM			
Cc1cc(Cn2c(=O)n(Cc3cnn(C)c3)c(=O)c3cc(S(=O)(=O)NC4(C)CC4)ccc32)on1 [Example 379]			77 nM	35 nM	
Cn1cc(Cn2c(=O)c3cc(S(=O)(=O)NC4(C)CC4)c(F)cc3n(C)c2=O)cn1 [Example 385, 7-Fluoro-1-methyl-N-(1-methylcyclopropyl)-3-[(1-methylpyrazol-4-yl)methyl]-2,4-dioxo-quinazoline-6-sulfonamide]			184 nM	341 nM	
Cc1cc(Cn2c(=O)c3cc(S(=O)(=O)NC4(C)CC4)ccc3n(CC(F)F)c2=O)on1 [Example 324]			272 nM	331 nM	
CCn1cncc1Cn1c(=O)n(Cc2cnn(C)c2)c(=O)c2cc(S(=O)(=O)NC3(CF)CC3)ccc21 [Example 576, 1-[(3-Ethylimidazol-4-yl)methyl]-N-[1-(fluoromethyl)cyclopropyl]-3-[(1-methylpyrazol-4-yl)methyl]-2,4-dioxo-quinazoline-6-sulfonamide]	2160 nM	42 nM			
